# Assay results as given in patent US8536196B2, “Substituted 1,3-dioxanes useful as PPAR modulators” (Evolva SA, priority 2007, dated 2013).
# Legend:
# [1] = tested on: mice (FeCl3 induced femoral artery thrombosis); assay: FeCl3 arterial thrombosis mouse model (occlusion time, blood flow); format: in vivo
# Procedure: The solutions were diluted 3.3-fold in saline and 100 μl/25 g was injected.
# During the experiments, a soluble potassium salt of the drug was provided, diluted in saline. Of this formulation, 100 μl/25 g was injected i.v. in the tail vein (dose of 100 mg/kg).
# Aspirin is given the same way at a dose of 200 mg/kg. Clopidogrel is administered by oral gavage at a dose of 20 mg/kg at 6-7 hours prior to the experiment. The solutions were coded (except for clopidogrel) and the operator was blinded to the code. The animals assigned to each group were matched for body weight. All mice used were 8-10 weeks old males and were in a 100% Swiss genetic background.
# (§1) The flow in each image is expressed as a percentage of that at the contralateral side, and data are averaged for all 120 images to determine total flow. The same analysis is performed for 10 min intervals (which gives essentially the same information as the area under the curve). […] Flow before treatment is recorded as 100%, and that in occluded arteries as 0%. At the end of the experiment, blood is collected on 0.01M citrate by heart puncture for determination of blood cell counts. Plasma is prepared by centrifugation and stored at −20° C. for determination of drug levels.
# Statistical analysis for differences between two groups is performed by non-parametric Student t-test. Occlusion times >30 min were considered equal to 30 min for statistical analysis. It should be noted that this approach may result in a statistical bias, the more so because the number of experiments is not the same in the different groups. Significance is set at p<0.05.
# [2] = Blood cell analysis at end of thrombosis experiment; format: in vivo, mouse
# Procedure: as §1
# Table VI summarizes the results of blood cell analysis performed on a sample taken at the end of the observation period. (Z)-6-((2S,4S,5R)-2-(2-chlorophenyl)-4-(2-hydroxyphenyl)-1,3-dioxan-5-yl)hex-4-enoic is referred to in Table VI as EV.
# [3] = tested on: MEFs / 3T3-L1; assay: Adipocyte differentiation induction assay (Oil Red O staining); format: cell-based, mouse; set-up: key to Adip. (adipocyte differentiation): 0: similar results to DPD; −1: even less adipocyte differentiation; +1: more adipocyte differentiation (both relative to DPD); conditions: for Adip. (adipocyte differentiation): relative to DPD (SN1)
# Procedure: This example describes an assay for determining adipocyte differention. Compounds are tested to see whether they induce adipocyte differentiation and also to see whether they inhibit adipocyte differention.
# MEFs were grown in AmnioMax basal medium (Gibco) supplemented with 7.5% Amniomax supplement C-100 (Gibco), 7.5% Fetal Bovine Serum (FBS), 2 mM Glutamine, 62.5 μg/ml penicillin and 100 μg/ml Streptomycin (growth medium). At confluence, MEFs were induced to differentiation in growth medium with the addition of 1 μM dexamethasone (Sigma) 0.5 mM isobutylmethylxanthine (Sigma), 5 μg/ml insulin (Sigma) and 10 μM test compound dissolved in DMSO or DMSO alone. Medium was subsequently renewed every 48 hrs with growth media supplemented with 5 μg/ml Insulin and ligand or DMSO.
# Briefly, to test compounds as inducers of adipocyte differentiation, 3T3-L1 are grown to confluence in DMEM with 10% Calf serum (CS), typically in 24 well dishes. At 2 days post confluence (day 0), cells are induced to differentiate with DMEM supplemented with 10% fetal bovine serum (FBS), 1 μM dexamethasone and the test compound (01, 1 and 10 μM). BRL49653 (1.0 μM dissolved in 100% DMSO) is used as a positive control. After 48 h, the cells are re-fed with DMEM containing 10% FBS supplemented with the test compound or the positive control. From day 4, cells are grown in DMEM with 10% FBS and are changed every second day until day 8. At day 8, cells are stained with Oil Red O as described below.
# Cells cultured as described above are used for Oil Red staining. Dishes are washed in PBS and cells were fixed in 3.7% paraformaldehyde for 1 h and stained with oil red O as described in (Hansen et al 1999). Oil red O solution stock solution is prepared by dissolving 0.5 g of Oil Red O (Sigma) in 100 mL of isopropanol. Oil re 0 working solution is prepared by diluting a stock solution with water (6:4) followed by filtration.
# Table II summarizes results obtained with different analogs of DPD (SN1), “0” representing similar results to DPD, “−1” representing even less adipocyte differentiation, “+1” representing more adipocyte differentiation (both relative to DPD) and “−” meaning not assayed.
# [4] = target: T1, Gal4-PPARgammaLBD (Homo sapiens, UniProt P37231); assay: PPARgamma transactivation assay (Gal4-PPARgammaLBD, UASx4-TK-luc reporter); format: cell-based; conditions: for PPAR (PPARgamma activating activity): level of activity relative to 10 μM DPD (SN1)
# T1 construct: expressed in transfected cells; host or cells: mouse embryonic fibroblasts (MEFs) or ME3 cells
# T1 sequence (P37231 204-505): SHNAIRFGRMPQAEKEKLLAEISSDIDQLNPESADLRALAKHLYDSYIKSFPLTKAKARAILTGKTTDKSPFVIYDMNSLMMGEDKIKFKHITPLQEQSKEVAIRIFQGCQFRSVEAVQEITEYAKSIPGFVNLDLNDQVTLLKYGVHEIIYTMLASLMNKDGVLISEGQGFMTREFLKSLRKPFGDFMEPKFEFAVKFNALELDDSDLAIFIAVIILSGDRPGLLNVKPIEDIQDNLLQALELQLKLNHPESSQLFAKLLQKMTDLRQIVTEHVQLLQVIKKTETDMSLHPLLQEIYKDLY
# Description: This is an example of a transactivation assay for determining PPAR gamma modulating activity.
# The UASx-4-TK-luc reporter construct (where UAS refers to “upstream activator sequence”) contains four Gal4-responsive elements. The plasmid Gal4-PPARgammaLBD encodes a Gal4-DBD-PPARgamma-LBD fusion protein (i.e. the DNA-binding domain, DBD, of Gal4 fused to the ligand-binding domain, LBD, of PPARgamma) capable of transactivating the UASx-4-TK-luc reporter plasmid by binding to the UAS. The CMV-beta-galactosidase plasmid (where CMV is cytomegalovirus) is used for normalization of experimental values.
# The cells were replated, typically in 24 well plates, so that at the time of transfection the cells are 50-70% confluent.
# Briefly, per well in a 24 well plate, UASx4TKIuc (0.2 μg) Gal4-PPARgammaLBD (or pM-hPPARgamma-LBD; 0.1 μg) and CMV-beta-galactosidase (0.05 μg) in 30 μL DMEM (free of serum and antibiotics) is mixed with 30 μL DMEM (free of serum and antibiotics) containing 1 μL metafectenein. The mixture is incubated at room temperature for 20 min to allow formation of nucleic acid-lipid complexes and then approximately 60 μL is added to each well containing the 50-60% confluent cells. […] Cells were harvested after 12-24 hours and luciferase and beta-galactosidase activities were measured according to standard protocols.
# “−” means that testing was not performed.
# [5] = Aspirin 200 mg/kg i.v., n = 7, mean ± SEM
# [6] = Clopidogrel 20 mg/kg oral gavage, n = 6, mean ± SEM
structure (smiles),measurement,setting,value
"O=C([O-])CC/C=C\C[C@@H]1CO[C@H](c2ccccc2Cl)O[C@@H]1c1ccccc1O.[K+] [(Z)-6-((2S,4S,5R)-2-(2-chlorophenyl)-4-(2-hydroxyphenyl)-1,3-dioxan-5-yl(hex-4-enoic potassium]","blood flow, time window 0-10 min",[1]; 100 mg/kg in saline i.v.,significantly higher blood flow as compared to either saline alone (p=0.009) or to aspirin (p=0.0006)
same,occlusion time,[1]; 100 mg/kg in saline i.v.,prolonged the occlusion time
same,total blood flow,[1]; 100 mg/kg in saline i.v.,significantly improved total blood flow as compared to either saline (p=0.0032) or aspirin (p=0.0021)
"CC(=O)Oc1ccccc1C(=O)O [Aspirin, reference compound]",occlusion time,[1]; 200 mg/kg i.v. in the tail vein,no effect
same,total blood flow,"[1]; 200 mg/kg i.v., versus vehicle",no significant effect
same,Hematocrit,[2]; [5],72 ± 0.60%
same,Hemoglobin,[2]; [5],15 ± 0.19 g/dL
same,Lymphocytes,[2]; [5],60 ± 11%
same,Neutrophils,[2]; [5],39 ± 11%
same,Platelets,[2]; [5],1020 ± 59 ×10^3/μl
same,Red blood cells,[2]; [5],9.3 ± 0.10 ×10^6/μl
same,White blood cells,[2]; [5],1.4 ± 0.42 ×10^3/μl
"COC(=O)[C@H](c1ccccc1Cl)N1CCc2sccc2C1 [Clopidogrel, reference compound]",occlusion,"[1]; 20 mg/kg oral gavage 6-7 hours prior to the experiment, 30 min observation",totally prevents occlusion within 30 min in 6/7 experiments
same,total blood flow,"[1]; 20 mg/kg oral gavage, versus vehicle",significantly improved total blood flow
same,Hematocrit,[2]; [6],72 ± 2.7%
same,Hemoglobin,[2]; [6],15 ± 0.60 g/dL
same,Lymphocytes,[2]; [6],47 ± 7.8%
same,Neutrophils,[2]; [6],50 ± 7.2%
same,Platelets,[2]; [6],1060 ± 106 ×10^3/μl
same,Red blood cells,[2]; [6],9.0 ± 0.36 ×10^6/μl
same,White blood cells,[2]; [6],0.62 ± 0.22 ×10^3/μl
"COc1ccccc1[C@@H]1O[C@H](c2ccccc2Cl)OC[C@@H]1C/C=C\CCC(=O)O [Compound 4, (Z)-6-((2R,4R,5S)-2-(2-chlorophenyl)-4-(2-methoxyphenyl)-1,3-dioxan-5-yl)hex-4-enoic acid]",Adip. (adipocyte differentiation),[3],0
"COc1ccccc1[C@H]1O[C@@H](c2ccccc2Cl)OC[C@H]1C/C=C\CCC(=O)O [Compound 5, (Z)-6-((2S,4S,5R)-2-(2-chlorophenyl)-4-(2-methoxyphenyl)-1,3-dioxan-5-yl)hex-4-enoic acid]",Adip. (adipocyte differentiation),[3],0
O=C(O)CC/C=C\C[C@@H]1CO[C@H](c2ccccc2Cl)O[C@@H]1c1ccccc1O [compound 1],Adip. (adipocyte differentiation),[3],0
O=C(O)CC/C=C\C[C@@H]1COC(c2cccc(Cl)c2Cl)O[C@@H]1c1ccccc1O (stereo partly shown) [compound 2],Adip. (adipocyte differentiation),[3],0
O=C(O)CC/C=C\C[C@@H]1COC2(CCCCC2)O[C@@H]1c1ccccc1O [compound 6],Adip. (adipocyte differentiation),[3],0
COc1ccc(Oc2ccccc2C2OC[C@@H](C/C=C\CCC(=O)O)[C@@H](c3ccccc3O)O2)cc1 (stereo partly shown) [compound 7],PPARgamma activity (summary in words),[4],higher potency
same,adipocyte differentiation (summary in words),[3],low or no adipocyte differentiation
same,Adip. (adipocyte differentiation),[3],0
O=C(O)CC/C=C\C[C@@H]1COC2(CCNCC2)O[C@@H]1c1ccccc1O [compound 8],PPAR (PPARgamma activating activity),[4],Boc de- rivative Inactive
same,Adip. (adipocyte differentiation),[3],−1
O=C(O)CC/C=C\C[C@@H]1COC(c2cccc3ccccc23)O[C@@H]1c1ccccc1O (stereo partly shown) [compound 9],Adip. (adipocyte differentiation),[3],0
O=C(O)CC/C=C\C[C@@H]1COC(c2ccccc2-c2ccccc2)O[C@@H]1c1ccccc1O (stereo partly shown) [compound 10],PPARgamma activity (summary in words),[4],PPARgamma antagonist
same,PPAR (PPARgamma activating activity),[4],Antagonist
same,Adip. (adipocyte differentiation),[3],0
CCCCCC1OC[C@@H](C/C=C\CCC(=O)O)[C@@H](c2ccccc2O)O1 (stereo partly shown) [compound 11],Adip. (adipocyte differentiation),[3],+1
C/C=C/CC1OC[C@@H](C/C=C\CCC(=O)O)[C@@H](c2ccccc2O)O1 (stereo partly shown) [compound 12],Adip. (adipocyte differentiation),[3],−1
COc1ccccc1[C@H]1OC[C@@H](C/C=C\CCC(=O)O)[C@@H](c2ccccc2O)O1 [compound 18],Adip. (adipocyte differentiation),[3],−1
COc1cccc([C@H]2OC[C@@H](C/C=C\CCC(=O)O)[C@@H](c3ccccc3O)O2)c1OC [compound 19],Adip. (adipocyte differentiation),[3],0
CC(C)[C@H]1OC[C@@H](C/C=C\CCC(=O)O)[C@@H](c2ccccc2O)O1 [compound 20],Adip. (adipocyte differentiation),[3],0
O=C(O)CC/C=C\C[C@@H]1CO[C@H](C2CCCCC2)O[C@@H]1c1ccccc1O [compound 21],Adip. (adipocyte differentiation),[3],0
O=C(O)CCC/C=C\C[C@@H]1CO[C@H](c2ccccc2Cl)O[C@@H]1c1ccccc1O [compound 23],Adip. (adipocyte differentiation),[3],+1
COc1ccccc1[C@H]1OC(c2ccccc2Cl)OC[C@H]1C/C=C\CCC(=O)O (stereo partly shown) [compound 27],PPAR (PPARgamma activating activity),[4],Inactive
COc1ccccc1[C@H]1O[C@@H](c2c(Cl)cccc2Cl)OC[C@H]1C/C=C\CCC(=O)O [compound 28],PPAR (PPARgamma activating activity),[4],Inactive
O=C(O)CCCCCCC[C@@H]1CO[C@H](c2ccccc2Cl)O[C@@H]1c1ccccc1O [compound 31],Adip. (adipocyte differentiation),[3],0
CC1(C)OC[C@@H](C/C=C\CCCCC(=O)O)[C@@H](c2ccccc2O)O1 [compound 36],PPAR (PPARgamma activating activity),[4],Inactive
